Results taken from patent EP4678638A1, “NEW E3 UBIQUITIN LIGASE LIGAND, PROTEIN DEGRADATION AGENT AND USE THEREOF” (priority 2023, dated 2024).

Tests used:
H2228 = test: CCK-8 proliferation, NCI-H2228 (H2228); assay type: cell-based; settings: Homo sapiens, NCI-H2228; Table B6, compounds designed based on the ALK inhibitors; H2228 cells; read-out: Inhibitory activity (IC50, nM) on tumor cell proliferation, H2228
Outline: (§1)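 Cells seeded, then after 24 h treated with 10 concentrations (top 10 µM, 5-fold serial dilution) for a line-specific time at 37°C, 5% CO2. Viability read by CCK-8; IC50 fitted from growth-inhibition curves.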

SR = test: CCK-8 proliferation, SR; assay type: cell-based, Human; settings: Homo sapiens; Table B6, compounds designed based on the ALK inhibitors; SR cells; read-out: Inhibitory activity (IC50, nM) on tumor cell proliferation, SR
Outline: as §1

ALK = molecular target: T1, ALK (Homo sapiens, UniProt Q96SW2+Q9HC35+Q9UM73); test: Western blot degradation of ALK (H2228 Cell); assay type: cell-based; settings: Table D5
T1 construct: evaluate the effects of the compounds of the present disclosure on the expression of target proteins in cells; endogenous in cells; host or cells: H2228
T1 sequence (Q9HC35+Q9UM73 fused): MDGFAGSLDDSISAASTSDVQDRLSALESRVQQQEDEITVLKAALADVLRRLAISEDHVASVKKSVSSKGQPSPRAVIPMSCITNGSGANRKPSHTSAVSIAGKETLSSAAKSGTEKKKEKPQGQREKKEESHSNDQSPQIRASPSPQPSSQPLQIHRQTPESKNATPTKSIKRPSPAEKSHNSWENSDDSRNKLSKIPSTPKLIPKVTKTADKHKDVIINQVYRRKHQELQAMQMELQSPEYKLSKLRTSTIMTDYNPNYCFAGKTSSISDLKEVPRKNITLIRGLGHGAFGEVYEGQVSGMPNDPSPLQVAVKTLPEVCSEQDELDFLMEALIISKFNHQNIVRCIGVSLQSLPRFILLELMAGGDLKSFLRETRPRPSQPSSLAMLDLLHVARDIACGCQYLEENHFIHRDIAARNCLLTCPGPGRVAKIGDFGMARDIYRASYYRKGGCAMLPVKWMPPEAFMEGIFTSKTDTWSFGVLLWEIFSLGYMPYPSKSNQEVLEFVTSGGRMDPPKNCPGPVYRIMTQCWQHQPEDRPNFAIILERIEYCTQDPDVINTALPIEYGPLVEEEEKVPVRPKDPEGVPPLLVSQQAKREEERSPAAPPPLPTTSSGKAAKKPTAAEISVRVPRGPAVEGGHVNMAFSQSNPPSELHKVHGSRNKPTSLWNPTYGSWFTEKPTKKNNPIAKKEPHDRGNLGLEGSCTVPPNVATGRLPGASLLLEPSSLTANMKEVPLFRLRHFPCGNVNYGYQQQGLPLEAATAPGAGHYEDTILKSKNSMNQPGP
T1 sequence (Q96SW2 whole entry): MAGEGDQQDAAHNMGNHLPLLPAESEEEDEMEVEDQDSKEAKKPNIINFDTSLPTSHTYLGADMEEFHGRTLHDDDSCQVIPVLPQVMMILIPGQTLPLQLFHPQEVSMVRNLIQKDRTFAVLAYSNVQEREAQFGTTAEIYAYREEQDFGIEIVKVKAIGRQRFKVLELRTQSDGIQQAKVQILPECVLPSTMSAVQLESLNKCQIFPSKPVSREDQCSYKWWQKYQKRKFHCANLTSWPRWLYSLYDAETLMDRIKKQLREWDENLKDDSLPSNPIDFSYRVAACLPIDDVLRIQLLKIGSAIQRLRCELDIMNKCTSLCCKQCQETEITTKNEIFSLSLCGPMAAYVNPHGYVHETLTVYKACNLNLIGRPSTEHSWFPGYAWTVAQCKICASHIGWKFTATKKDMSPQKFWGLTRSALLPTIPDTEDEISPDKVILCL
T1 sequence (Q16531 whole entry partner): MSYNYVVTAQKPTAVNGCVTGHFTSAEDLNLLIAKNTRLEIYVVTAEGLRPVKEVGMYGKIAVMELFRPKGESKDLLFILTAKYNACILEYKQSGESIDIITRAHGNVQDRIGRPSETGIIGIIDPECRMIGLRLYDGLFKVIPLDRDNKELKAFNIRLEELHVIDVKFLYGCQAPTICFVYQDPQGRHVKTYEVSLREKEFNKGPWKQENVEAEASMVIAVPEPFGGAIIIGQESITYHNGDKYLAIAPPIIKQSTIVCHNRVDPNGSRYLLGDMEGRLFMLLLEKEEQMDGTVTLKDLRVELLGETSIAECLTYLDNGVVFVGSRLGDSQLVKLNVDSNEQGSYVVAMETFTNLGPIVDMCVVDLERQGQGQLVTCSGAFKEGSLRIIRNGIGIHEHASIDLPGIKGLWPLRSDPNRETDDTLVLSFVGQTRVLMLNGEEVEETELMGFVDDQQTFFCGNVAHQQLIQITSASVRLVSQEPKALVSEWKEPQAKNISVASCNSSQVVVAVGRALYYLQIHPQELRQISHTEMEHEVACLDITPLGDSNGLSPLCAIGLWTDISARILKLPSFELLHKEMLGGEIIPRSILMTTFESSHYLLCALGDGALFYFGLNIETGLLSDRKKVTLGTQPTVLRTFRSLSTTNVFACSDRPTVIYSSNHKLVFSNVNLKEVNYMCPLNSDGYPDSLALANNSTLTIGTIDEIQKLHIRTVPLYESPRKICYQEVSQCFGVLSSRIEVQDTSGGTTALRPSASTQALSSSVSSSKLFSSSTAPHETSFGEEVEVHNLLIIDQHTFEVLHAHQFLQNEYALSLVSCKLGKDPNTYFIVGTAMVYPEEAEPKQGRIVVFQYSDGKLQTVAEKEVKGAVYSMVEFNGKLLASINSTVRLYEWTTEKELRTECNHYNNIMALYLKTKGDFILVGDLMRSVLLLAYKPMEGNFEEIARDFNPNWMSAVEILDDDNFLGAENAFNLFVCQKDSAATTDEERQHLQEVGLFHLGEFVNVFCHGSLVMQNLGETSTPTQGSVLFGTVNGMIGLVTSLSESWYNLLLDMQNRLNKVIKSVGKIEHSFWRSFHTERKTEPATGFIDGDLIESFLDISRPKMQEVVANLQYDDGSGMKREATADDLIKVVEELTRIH
Description: Conventional Western blot assay was performed to evaluate the effects of the compounds of the present disclosure on the expression of target proteins in cells.
(1) Cell Seeding and Protein Harvesting: The selected cells were processed according to the cell seeding procedure and protein harvesting procedure in Table III-2. Table III-2 Cell Seeding and Protein Harvesting Procedures
(2) To the collected supernatant, 5X SDS sample loading buffer was added, followed by denaturation at 95°C for 5 minutes. The denatured samples were then separated by SDS-PAGE electrophoresis on a polyacrylamide gel. Proteins were transferred to a nitrocellulose membrane (0.45 µm NC membrane), blocked with blocking buffer at room temperature for 1 hour, and subjected to antibody incubation and development procedures according to the antibody manufacturer's instructions (Cell Signaling Technology).
Half-Maximal Degradation Concentration value (the drug concentration required for degrading proteins by 50%, abbreviated as DC50) reads method: comparing the grayscale values of Western blot bands from drug-treated samples with those from blank DMSO-treated controls, and identifying the drug concentration range at which the grayscale value is half that of the DMSO-treated control bands.
DC50 values can be calculated using ImageJ software to measure grayscale values of Western blot bands from drug-treated samples. The concentration-response curve is fitted to estimate the drug concentration corresponding to half the grayscale value.
Target protein remaining (%) refers to the percentage of target protein remaining in hPBMC cells after treatment with protein degrader compounds.
Calculation method for target protein remaining (%): Use ImageJ software to measure grayscale values of Western blot bands from drug (protein degrader)-treated samples. The grayscale value of drug-treated bands is divided by that of internal control protein bands, and the resulting quotient is normalized to obtain the relative percentage of remaining target protein after protein degrader treatment.
Target protein degradation rate (%) = 100% - target protein remaining (%).

[1] = molecular target: T2, human Cereblon WT GST-tagged protein (Homo sapiens, UniProt Q96SW2); test: CRBN binding, HTRF (CEREBLON BINDING kit); settings: Table II-2, CRBN binding screening, HTRF; for inhibition at 0.5 µM: read-out: Inhibition rate (%) at 0.5µM; for inhibition at 2 µM: read-out: Inhibition rate (%) at 2 µM
T2 construct: purchased CISBIO 64BDCRBNPEH
T2 sequence (Q96SW2 whole entry): as the sequence (Q96SW2 whole entry) above
Outline: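 After 3 h at room temperature, emission at 665 and 620 nm was measured in a homogeneous time-resolved fluorescence format. Compounds competed with a Thalidomide-Re probe for GST-tagged wild-type human CRBN, which was labelled with a Eu anti-GST antibody.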

H1975 = test: CCK-8 proliferation, NCI-H1975 (H1975); assay type: cell-based, Human; settings: Homo sapiens, NCI-H1975; Table B6, compounds designed based on the ALK inhibitors; H1975 cells; read-out: Inhibitory activity (IC50, nM) on tumor cell proliferation, H1975
Outline: as §1

Row | IC50 (H2228) [nM] | inhibition at 0.5 µM [1] [%] | inhibition at 2 µM [1] [%] | IC50 (H1975) [nM] | Structure (SMILES) | IC50 (SR) [nM] | Degradation of substrate protein ALK (substrate protein remaining %) (ALK)
1 | 500 to 1000 |  |  |  | Cc1cc(Nc2ncc(Cl)c(Nc3ccccc3S(=O)(=O)C(C)C)n2)c(OC(C)C)cc1C1CCN(Cc2cc(N3CCC(=O)NC3=O)ncc2F)CC1 [GT-07595, 1-(4-((4-(4-((5-chloro-4-((2-(isopropylsulfonyl)phenyl)amino)pyrimidin-2-yl)amino)-5-isopropoxy-2-methylphenyl)piperidin-1-yl)methyl)-5-fluoropyridin-2-yl)dihydropyrimidine-2,4(1H,3H)-dione] | 100 to 500 | A (A is defined as 0% ≤ substrate protein remaining % ≤ 80%)
2 | 100 to 500 |  |  |  | CCc1cc2c(cc1N1CCN(Cc3cccc(N4CCC(=O)NC4=O)c3)CC1)C(C)(C)c1[nH]c3cc(C#N)ccc3c1C2=O [GT-07325, 8-(4-(3-(2,4-dioxotetrahydropyrimidin-1(2H)-yl)benzyl)piperazin-1-yl)-9-ethyl-6,6-dimethyl-11-oxo-6,11-dihydro-5H-benzo[b]carbazole-3-carbonitrile] | 10 to 50 | A (A is defined as 0% ≤ substrate protein remaining % ≤ 80%)
3 |  | 40 to 53 | 80 to 100 |  | COc1cc(N2CCN(Cc3ccc(C4CCC(=O)NC4=O)c(F)c3)CC2)ccc1Nc1ncc(Cl)c(Nc2ccccc2P(C)(C)=O)n1 (stereo not drawn) [GT-03782, 3-(4-((4-(4-((5-chloro-4-((2-(dimethylphosphoryl)phenyl)amino)pyrimidin-2-yl)amino)-3-methoxyphenyl)piperazin-1-yl)methyl)-2-fluorophenyl)piperidine-2,6-dione] | 10 to 50 | A (A is defined as 0% ≤ substrate protein remaining % ≤ 80%)
4 | 100 to 500 |  |  | 100 to 500 | COc1cc(N2CCN(Cc3ccc(N4CCC(=O)NC4=O)cc3F)CC2)ccc1Nc1ncc(Cl)c(Nc2ccccc2P(C)(C)=O)n1 [GT-07347, 1-(4-((4-(4-((5-chloro-4-((2-(dimethylphosphoryl)phenyl)amino)pyrimidin-2-yl)amino)-3-methoxyphenyl)piperazin-1-yl)methyl)-3-fluorophenyl)dihydropyrimidine-2,4(1H,3H)-dione] | 10 to 50 | A (A is defined as 0% ≤ substrate protein remaining % ≤ 80%)
5 | 100 to 500 |  |  |  | CCc1cc2c(cc1N1CCN(Cc3cccc(NC4CCC(=O)NC4=O)c3)CC1)C(C)(C)c1[nH]c3cc(C#N)ccc3c1C2=O (stereo not drawn) [GT-07328, 8-(4-(3-((2,6-dioxopiperidin-3-yl)amino)benzyl)piperazin-1-yl)-9-ethyl-6,6-dimethyl-11-oxo-6,11-dihydro-5H-benzo[b]carbazole-3-carbonitrile] | 10 to 50 | A (A is defined as 0% ≤ substrate protein remaining % ≤ 80%)
6 | 500 to 1000 |  |  | 500 to 1000 | COc1cc(N2CCN(Cc3ccc(N4CCC(=O)NC4=O)cn3)CC2)ccc1Nc1ncc(Cl)c(Nc2ccccc2P(C)(C)=O)n1 [GT-07349, 1-(6-((4-(4-((5-chloro-4-((2-(dimethylphosphoryl)phenyl)amino)pyrimidin-2-yl)amino)-3-methoxyphenyl)piperazin-1-yl)methyl)pyridin-3-yl)dihydropyrimidine-2,4(1H,3H)-dione] | 50 to 100 | A (A is defined as 0% ≤ substrate protein remaining % ≤ 80%)
7 | 100 to 500 |  |  |  | CCc1cc2c(cc1N1CCN(Cc3ccc(N4CCC(=O)NC4=O)cn3)CC1)C(C)(C)c1[nH]c3cc(C#N)ccc3c1C2=O [GT-07326, 8-(4-((5-(2,4-dioxotetrahydropyrimidin-1(2H)-yl)pyridin-2-yl)methyl)piperazin-1-yl)-9-ethyl-6,6-dimethyl-11-oxo-6,11-dihydro-5H-benzo[b]carbazole-3-carbonitrile] | 10 to 50 | A (A is defined as 0% ≤ substrate protein remaining % ≤ 80%)
8 | 100 to 500 |  |  |  | Cc1cc(Nc2ncc(Cl)c(Nc3ccccc3S(=O)(=O)C(C)C)n2)c(OC(C)C)cc1C1CCN(Cc2cccc(NC3CCC(=O)NC3=O)c2)CC1 (stereo not drawn) [GT-07594, 3-((3-((4-(4-((5-chloro-4-((2-(isopropylsulfonyl)phenyl)amino)pyrimidin-2-yl)amino)-5-isopropoxy-2-methylphenyl)piperidin-1-yl)methyl)phenyl)amino)pip eridine-2,6-dione] | 50 to 100 | A (A is defined as 0% ≤ substrate protein remaining % ≤ 80%)
9 | 10 to 50 |  |  | 500 to 1000 | COc1cc(N2CCC(N3CCN(Cc4cc(C5CCC(=O)NC5=O)cnc4F)CC3)CC2)ccc1Nc1ncc(Cl)c(Nc2ccccc2P(C)(C)=O)n1 (stereo not drawn) [GT-07611, 3-(5-((4-(1-(4-((5-chloro-4-((2-(dimethylphosphoryl)phenyl)amino)pyrimidin-2-yl)amino)-3-methoxyphenyl)piperidin-4-yl)piperazin-1-yl)methyl)-6-fluoropyridin-3-yl)piperidine-2,6-dione] | 1 to 10 | A (A is defined as 0% ≤ substrate protein remaining % ≤ 80%)
10 |  |  |  |  | CCc1cc2c(cc1N1CCN(Cc3cncc(N4CCC(=O)NC4=O)c3)CC1)C(C)(C)c1[nH]c3cc(C#N)ccc3c1C2=O [GT-07835, 8-(4-((5-(2,4-dioxotetrahydropyrimidin-1(2H)-yl)pyridin-3-yl)methyl)piperazin-1-yl)-9-ethyl-6,6-dimethyl-11-oxo-6,11-dihydro-5H-benzo[b]carbazole-3-carbonitrile] |  | A (A is defined as 0% ≤ substrate protein remaining % ≤ 80%)
11 |  |  |  |  | COc1cc(N2CCC(N(C)Cc3cc(N4CCC(=O)NC4=O)cnc3F)CC2)ccc1Nc1ncc(Cl)c(Nc2ccccc2P(C)(C)=O)n1 [GT-07750, 1-(5-(((1-(4-((5-chloro-4-((2-(dimethylphosphoryl)phenyl)amino)pyrimidin-2-yl)amino)-3-methoxyphenyl)piperidin-4-yl)(methyl)amino)methyl)-6-fluoropyridin-3-yl)dihydropyrimidine-2,4(1H,3H)-dione] |  | A (A is defined as 0% ≤ substrate protein remaining % ≤ 80%)
12 |  | 40 to 53 | 60 to 80 | 500 to 1000 | COc1cc(N2CCN(Cc3ccc(C4CCC(=O)NC4=O)cc3)CC2)ccc1Nc1ncc(Cl)c(Nc2ccccc2P(C)(C)=O)n1 (stereo not drawn) [GT-03781, 3-(4-((4-(4-((5-chloro-4-((2-(dimethylphosphoryl)phenyl)amino)pyrimidin-2-yl)amino)-3-methoxyphenyl)piperazin-1-yl)methyl)phenyl)piperidine-2,6-dione] | 1 to 10 | A (A is defined as 0% ≤ substrate protein remaining % ≤ 80%)
13 | 100 to 500 |  |  | 500 to 1000 | COc1cc(N2CCN(Cc3cccc(N4CCC(=O)NC4=O)c3)CC2)ccc1Nc1ncc(Cl)c(Nc2ccccc2P(C)(C)=O)n1 [GT-07348, 1-(3-((4-(4-((5-chloro-4-((2-(dimethylphosphoryl)phenyl)amino)pyrimidin-2-yl)amino)-3-methoxyphenyl)piperazin-1-yl)methyl)phenyl)dihydropyr imidine-2,4(1H,3H)-dione] | 10 to 50 | A (A is defined as 0% ≤ substrate protein remaining % ≤ 80%)
